Measured values reported in patent publication US11845724B2, “USP30 inhibitors and uses thereof” (Vincere Biosciences, Inc., priority 2019, dated 2023).
Read-outs that look alike come from different tables or passages of the source.

What was measured:
[1] = target: USP30 (Homo sapiens (Human), UniProt Q70CQ3); experiment: Dundee MALDI-TOF mass spectrometry assay (IC50); format: biochemical; conditions: USP30 25 ng/μl, K48-linked diubiquitin 5.6 μM, avg, read-out: Dundee IC50 μM (avg in vitro MS assay)
Sequence of USP30 (Q70CQ3 whole entry): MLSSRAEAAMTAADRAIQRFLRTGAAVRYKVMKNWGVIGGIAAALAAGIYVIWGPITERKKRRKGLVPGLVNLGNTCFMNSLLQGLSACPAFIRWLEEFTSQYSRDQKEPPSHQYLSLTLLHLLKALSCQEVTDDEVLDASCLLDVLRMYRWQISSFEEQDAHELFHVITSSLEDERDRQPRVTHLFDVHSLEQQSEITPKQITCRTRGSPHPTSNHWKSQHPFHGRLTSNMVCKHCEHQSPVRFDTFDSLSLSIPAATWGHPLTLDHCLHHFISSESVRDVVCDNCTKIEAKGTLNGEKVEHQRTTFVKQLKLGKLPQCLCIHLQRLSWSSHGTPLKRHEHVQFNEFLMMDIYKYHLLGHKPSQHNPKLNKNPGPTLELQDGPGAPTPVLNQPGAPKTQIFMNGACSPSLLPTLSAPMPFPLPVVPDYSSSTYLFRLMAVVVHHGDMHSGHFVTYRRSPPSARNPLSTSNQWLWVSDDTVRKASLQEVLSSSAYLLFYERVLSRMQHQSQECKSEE
How it was run: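 USP30 (25 ng/μl) preincubated with compound 5 min at RT in Tris/BSA/DTT buffer, then K48-linked diubiquitin (5.6 μM) added for 45 min at RT. Stopped with 2% TFA; cleavage quantified by MALDI-TOF mass spectrometry to give IC50.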

[2] = target: recombinant USP30 (amino acids 57-517 of the human sequence) (Homo sapiens (Human), UniProt Q70CQ3); experiment: In vitro USP30 biochemical assay (Ubiquitin-Rhodamine)
Sequence of recombinant USP30 (amino acids 57-517 of the human sequence) (Q70CQ3 57-517): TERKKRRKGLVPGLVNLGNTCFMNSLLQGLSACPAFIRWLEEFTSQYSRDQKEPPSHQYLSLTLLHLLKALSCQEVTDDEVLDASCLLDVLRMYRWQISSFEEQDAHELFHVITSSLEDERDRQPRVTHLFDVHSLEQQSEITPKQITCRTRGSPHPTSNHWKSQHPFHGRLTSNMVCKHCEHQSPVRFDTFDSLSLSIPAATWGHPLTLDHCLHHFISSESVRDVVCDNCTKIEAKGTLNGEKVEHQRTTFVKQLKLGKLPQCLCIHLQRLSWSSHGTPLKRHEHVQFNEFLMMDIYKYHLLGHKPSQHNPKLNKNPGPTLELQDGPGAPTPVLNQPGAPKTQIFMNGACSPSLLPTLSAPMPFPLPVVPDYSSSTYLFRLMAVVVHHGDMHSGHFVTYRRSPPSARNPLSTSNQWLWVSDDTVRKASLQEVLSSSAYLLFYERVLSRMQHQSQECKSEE

[3] = USP30 IC50 μM (avg), Ubiquitin-Rhodamine substrate 25 nM, 1.5 nM recombinant USP30

SMILES | IC50 [1] [µM] | IC50 [2, 3] [µM] | IC50 ([2]; read-out: USP30 IC50 μM (avg), Ubiquitin-Rhodamine substrate 25 nM, 1.5 nM recombinant USP30) [µM]
O=C(N[C@@H](Cc1ccccc1)C(=O)Nc1ccc(S(=O)(=O)NC23CC(C2)C3)cc1)c1cccnc1 [Compound I-79, (S)-N-(1-(4-(N-bicyclo[1.1.1]pentan-1-ylsulfamoyl)phenylamino)-1-oxo-3-phenylpropan-2-yl)nicotinamide] | 0.05 to 1 | 1 to 10 | 
CN(C(=O)c1ccc(F)cc1)[C@@H](Cc1cccnc1)C(=O)Nc1ccc(S(=O)(=O)NC(C)(C)C)cc1 [Compound I-91, (S)-N-(1-(4-(N-tert-butylsulfamoyl)phenylamino)-1-oxo-3-(pyridin-3-yl)propan-2-yl)-4-fluoro-N-methylbenzamide] | 0.05 to 1 | 0.05 to 1 | 
CC(C)(C)OCCNS(=O)(=O)c1ccc(NC(=O)[C@H](Cc2ccccc2)NC(=O)c2ccc(F)cc2)cc1 [Compound I-135, (S)-N-(1-(4-(N-(2-tert-butoxyethyl)sulfamoyl)phenylamino)-1-oxo-3-phenylpropan-2-yl)-4-fluorobenzamide] | 0.05 to 1 | 1 to 10 | 
O=C(N[C@@H](Cc1ccccc1)C(=O)Nc1ccc(S(=O)(=O)NC2CCC2)cc1)c1ccccn1 [Compound I-78, (S)-N-(1-(4-(N-cyclobutylsulfamoyl)phenylamino)-1-oxo-3-phenylpropan-2-yl) picolinamide] | 0.05 to 1 | 1 to 10 | 
CC(C)(C)NS(=O)(=O)c1ccc(NC(=O)[C@H](Cc2ccccc2)NC(=O)c2ccc(F)cc2)c(F)c1 [Compound I-158, (S)-N-(1-(4-(N-tert-butylsulfamoyl)-2-fluorophenylamino)-1-oxo-3-phenylpropan-2-yl)-4-fluorobenzamide] | < 0.05 |  | < 0.05
O=C(N[C@@H](Cc1ccccc1)C(=O)Nc1ccc(S(=O)(=O)NCCCN2CCOCC2)cn1)c1ccc(F)cc1 [Compound I-123, (S)-4-fluoro-N-(1-(5-(N-(3-morpholinopropyl)sulfamoyl)pyridin-2-ylamino)-1-oxo-3-phenylpropan-2-yl)benzamide] | 0.05 to 1 | 0.05 to 1 | 
Cc1cc(NC(=O)[C@H](Cc2ccccc2)NC(=O)c2ccc(F)cn2)ccc1S(=O)(=O)NC12CC(C1)C2 [Compound I-98, (S)-N-(1-(4-(N-bicyclo[1.1.1]pentan-1-ylsulfamoyl)-3-methylphenylamino)-1-oxo-3-phenylpropan-2-yl)-5-fluoropicolinamide] | 0.05 to 1 | 0.05 to 1 | 

Results, then the compound that gave them:

IC50 [1] [µM] | IC50 [2, 3] [µM] | IC50 ([2]; read-out: USP30 IC50 μM (avg), Ubiquitin-Rhodamine substrate 25 nM, 1.5 nM recombinant USP30) [µM] | SMILES
0.05 to 1 | 0.05 to 1 |  | O=C(N[C@@H](Cc1ccccc1)C(=O)Nc1ccc(S(=O)(=O)NC23CC(C2)C3)cn1)c1ccc(F)cc1 [Compound I-118, (S)-N-(1-(5-(N-bicyclo[1.1.1]pentan-1-ylsulfamoyl)pyridin-2-ylamino)-1-oxo-3-phenylpropan-2-yl)-4-fluorobenzamide]
< 0.05 | 0.05 to 1 |  | CCNS(=O)(=O)c1ccc(NC(=O)[C@H](Cc2ccccc2)NC(=O)c2ccc(F)cc2)cc1 [Compound I-5, (S)-N-(1-(4-(N-Ethylsulfamoyl)phenylamino)-1-oxo-3-phenylpropan-2-yl)-4-fluorobenzamide]
0.05 to 1 | 1 to 10 |  | CC(C)(C)C[S+]([O-])c1ccc(NC(=O)[C@H](Cc2ccccc2)NC(=O)c2ccc(F)cc2)cc1 (stereo partly drawn) [Compound I-4, 4-fluoro-N-((2S)-1-(4-(neopentylsulfinyl)phenylamino)-1-oxo-3-phenylpropan-2-yl)benzamide]
0.05 to 1 | 0.05 to 1 |  | CNS(=O)(=O)c1ccc(NC(=O)[C@H](Cc2ccccc2)NC(=O)c2ccc(F)cc2)cc1 [Compound I-30, (S)-4-fluoro-N-(1-(4-(N-methylsulfamoyl)phenylamino)-1-oxo-3-phenylpropan-2-yl)benzamide]
< 0.05 | 0.05 to 1 |  | O=C(N[C@@H](Cc1ccccc1)C(=O)Nc1ccc(S(=O)(=O)NCCO)cc1)c1ccc(F)cc1 [Compound I-138, (S)-4-fluoro-N-(1-(4-(N-(2-hydroxyethyl)sulfamoyl)phenylamino)-1-oxo-3-phenylpropan-2-yl)benzamide]
